Assay results published in PubChem BioAssay (NCI).
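The compound was tested at five concentrations on cells cultured in 96-well plates, with a 48-hour exposure period. TGI marks complete inhibition of growth.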

Key:
Test in all cases: NCI anticancer screen, dose series, 48 h
786-0 renal = system: 786-0 renal
A498 renal = system: A498 renal
A549 NSCLC = system: A549 NSCLC
ACHN renal = system: ACHN renal
BT-549 breast = system: BT-549 breast
CAKI-1 renal = system: CAKI-1 renal
CCRF-CEM leukemia = system: CCRF-CEM leukemia
COLO 205 colon = system: COLO 205 colon
DU-145 prostate = system: DU-145 prostate
EKVX NSCLC = system: EKVX NSCLC
HCC-2998 colon = system: HCC-2998 colon
HCT-116 colon = system: HCT-116 colon
HCT-15 colon = system: HCT-15 colon
HL-60(TB) leukemia = system: HL-60(TB) leukemia
HOP-62 NSCLC = system: HOP-62 NSCLC
HOP-92 NSCLC = system: HOP-92 NSCLC
HS 578T breast = system: HS 578T breast
HT29 colon = system: HT29 colon
IGROV1 ovarian = system: IGROV1 ovarian
K-562 leukemia = system: K-562 leukemia
KM12 colon = system: KM12 colon
LOX IMVI melanoma = system: LOX IMVI melanoma
M14 melanoma = system: M14 melanoma
MALME-3M melanoma = system: MALME-3M melanoma
MCF7 breast = system: MCF7 breast
MDA-MB-231 breast = system: MDA-MB-231 breast
MDA-MB-435 = system: MDA-MB-435
MDA-N = system: MDA-N
MOLT-4 leukemia = system: MOLT-4 leukemia
NCI-H226 lung = system: NCI-H226 lung
NCI-H23 lung = system: NCI-H23 lung
NCI-H460 lung = system: NCI-H460 lung
NCI-H522 lung = system: NCI-H522 lung
NCI/ADR-RES ovarian = system: NCI/ADR-RES ovarian
OVCAR-3 ovarian = system: OVCAR-3 ovarian
OVCAR-4 ovarian = system: OVCAR-4 ovarian
OVCAR-5 ovarian = system: OVCAR-5 ovarian
OVCAR-8 ovarian = system: OVCAR-8 ovarian
PC-3 prostate = system: PC-3 prostate
RPMI-8226 leukemia = system: RPMI-8226 leukemia
RXF 393 renal = system: RXF 393 renal
SF-268 CNS = system: SF-268 CNS
SF-295 CNS = system: SF-295 CNS
SF-539 CNS = system: SF-539 CNS
SK-MEL-2 melanoma = system: SK-MEL-2 melanoma
SK-MEL-28 melanoma = system: SK-MEL-28 melanoma
SK-MEL-5 melanoma = system: SK-MEL-5 melanoma
SN12C renal = system: SN12C renal
SNB-19 CNS = system: SNB-19 CNS
SR leukemia = system: SR leukemia
SW-620 colon = system: SW-620 colon
T-47D breast = system: T-47D breast
TK-10 renal = system: TK-10 renal
U251 CNS = system: U251 CNS
UACC-257 melanoma = system: UACC-257 melanoma
UACC-62 melanoma = system: UACC-62 melanoma
UO-31 renal = system: UO-31 renal

CC(=O)Nc1cc2cc(NS(=O)(=O)c3cc(C(F)(F)F)cc(C(F)(F)F)c3)ccc2oc1=O
TGI (786-0 renal): > 100 µM | TGI (A498 renal): > 100 µM | TGI (A549 NSCLC): > 100 µM | TGI (ACHN renal): > 100 µM | TGI (BT-549 breast): > 100 µM | TGI (CAKI-1 renal): > 100 µM | TGI (CCRF-CEM leukemia): > 100 µM | TGI (COLO 205 colon): > 100 µM | TGI (DU-145 prostate): > 100 µM | TGI (EKVX NSCLC): > 100 µM | TGI (HCC-2998 colon): > 100 µM | TGI (HCT-116 colon): > 100 µM | TGI (HCT-15 colon): > 100 µM | TGI (HL-60(TB) leukemia): > 100 µM | TGI (HOP-62 NSCLC): > 100 µM | TGI (HOP-92 NSCLC): > 100 µM | TGI (HS 578T breast): > 100 µM | TGI (HT29 colon): > 100 µM | TGI (IGROV1 ovarian): > 100 µM | TGI (K-562 leukemia): > 100 µM | TGI (KM12 colon): > 100 µM | TGI (LOX IMVI melanoma): > 100 µM | TGI (M14 melanoma): > 100 µM | TGI (MALME-3M melanoma): > 100 µM | TGI (MCF7 breast): > 100 µM | TGI (MDA-MB-231 breast): > 100 µM | TGI (MDA-MB-435): > 100 µM | TGI (MDA-N): > 100 µM | TGI (MOLT-4 leukemia): > 100 µM | TGI (NCI-H226 lung): > 100 µM | TGI (NCI-H23 lung): > 100 µM | TGI (NCI-H460 lung): > 100 µM | TGI (NCI-H522 lung): > 100 µM | TGI (NCI/ADR-RES ovarian): > 100 µM | TGI (OVCAR-3 ovarian): > 100 µM | TGI (OVCAR-4 ovarian): > 100 µM | TGI (OVCAR-5 ovarian): > 100 µM | TGI (OVCAR-8 ovarian): > 100 µM | TGI (PC-3 prostate): > 100 µM | TGI (RPMI-8226 leukemia): > 100 µM | TGI (RXF 393 renal): 0.811 µM | TGI (SF-268 CNS): > 100 µM | TGI (SF-295 CNS): > 100 µM | TGI (SF-539 CNS): 96.6 µM | TGI (SK-MEL-2 melanoma): > 100 µM | TGI (SK-MEL-28 melanoma): > 100 µM | TGI (SK-MEL-5 melanoma): > 100 µM | TGI (SN12C renal): > 100 µM | TGI (SNB-19 CNS): > 100 µM | TGI (SR leukemia): > 100 µM | TGI (SW-620 colon): > 100 µM | TGI (T-47D breast): > 100 µM | TGI (TK-10 renal): > 100 µM | TGI (U251 CNS): > 100 µM | TGI (UACC-257 melanoma): > 100 µM | TGI (UACC-62 melanoma): > 100 µM | TGI (UO-31 renal): > 100 µM
